# Results taken from ChEMBL document CHEMBL1201862, “PubChem BioAssay data set” (2004).
#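 1) Cells in 96-well plates. 2) Compound, 48 h, 5 concentrations. 3) Linear interpolation between surrounding doses. 4) Unreached endpoint = highest concentration. Here, GI50 denotes the concentration required for 50% inhibition of growth.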 Activity calls are given as the source filed them. Cut-off read from the data, not from the text of the source: active = GI50 up to about 1.1 µM and inactive = higher.
# Tests used:
# Assay in all cases: NCI tumour cell line growth inhibition, 48 h
# SK-OV-3 = test system: SK-OV-3
# UO-31 = test system: UO-31
# HOP-92 = test system: HOP-92
# COLO 205 = test system: COLO 205
# SK-MEL-2 = test system: SK-MEL-2
# MDA-MB-231 = test system: MDA-MB-231
# U-251 = test system: U-251
# SK-MEL-5 = test system: SK-MEL-5
# TK-10 = test system: TK-10
# A549 = test system: A549
# OVCAR-8 = test system: OVCAR-8
# PC-3 = test system: PC-3
# HCT-116 = test system: HCT-116
# BT-549 = test system: BT-549
# NCI-H226 = test system: NCI-H226
# MDA-N = test system: MDA-N
# SNB-19 = test system: SNB-19
# NCI-H460 = test system: NCI-H460
# UACC-62 = test system: UACC-62
# NCI/ADR-RES = test system: NCI/ADR-RES
# OVCAR-4 = test system: OVCAR-4
# HL-60 = test system: HL-60
# EKVX = test system: EKVX
# SK-MEL-28 = test system: SK-MEL-28
# LOX IMVI = test system: LOX IMVI
# RXF 393 = test system: RXF 393
# NCI-H23 = test system: NCI-H23
# DU-145 = test system: DU-145
# HCC 2998 = test system: HCC 2998
# K562 = test system: K562
# HCT-15 = test system: HCT-15
# RPMI-8226 = test system: RPMI-8226
# UACC-257 = test system: UACC-257
# T47D = test system: T47D
# M14 = test system: M14
# ACHN = test system: ACHN
# CCRF-CEM = test system: CCRF-CEM
# HT-29 = test system: HT-29
# NCI-H522 = test system: NCI-H522
# HOP-62 = test system: HOP-62
# SN12C = test system: SN12C
# SW-620 = test system: SW-620
# MCF7 = test system: MCF7
# SF-268 = test system: SF-268
# CAKI-1 = test system: CAKI-1
# 786-0 = test system: 786-0
# Malme-3M = test system: Malme-3M
# MDA-MB-435 = test system: MDA-MB-435
# SF-295 = test system: SF-295
# A498 = test system: A498
# IGROV-1 = test system: IGROV-1
# MOLT-4 = test system: MOLT-4
# OVCAR-5 = test system: OVCAR-5
# Hs-578T = test system: Hs-578T
# KM12 = test system: KM12
# OVCAR-3 = test system: OVCAR-3
# SF-539 = test system: SF-539
# SNB-75 = test system: SNB-75
smiles,measurement,setting,value
COC(=O)c1c(C#N)c(N)nc2c1CCC2,GI50,SK-OV-3,> 100 µM (inactive)
same,GI50,UO-31,69.7 µM (inactive)
same,GI50,HOP-92,> 100 µM (inactive)
same,GI50,COLO 205,> 100 µM (inactive)
same,GI50,SK-MEL-2,> 100 µM (inactive)
same,GI50,MDA-MB-231,> 100 µM (inactive)
same,GI50,U-251,> 100 µM (inactive)
same,GI50,SK-MEL-5,> 100 µM (inactive)
same,GI50,TK-10,> 100 µM (inactive)
same,GI50,A549,> 100 µM (inactive)
same,GI50,OVCAR-8,> 100 µM (inactive)
same,GI50,PC-3,> 100 µM (inactive)
same,GI50,HCT-116,> 100 µM (inactive)
same,GI50,BT-549,> 100 µM (inactive)
same,GI50,NCI-H226,> 100 µM (inactive)
same,GI50,MDA-N,> 100 µM (inactive)
same,GI50,SNB-19,> 100 µM (inactive)
same,GI50,NCI-H460,> 100 µM (inactive)
same,GI50,UACC-62,> 100 µM (inactive)
same,GI50,NCI/ADR-RES,> 100 µM (inactive)
same,GI50,OVCAR-4,93.3 µM (inactive)
same,GI50,HL-60,> 100 µM (inactive)
same,GI50,EKVX,> 100 µM (inactive)
same,GI50,SK-MEL-28,> 100 µM (inactive)
same,GI50,LOX IMVI,> 100 µM (inactive)
same,GI50,RXF 393,> 100 µM (inactive)
same,GI50,NCI-H23,> 100 µM (inactive)
same,GI50,DU-145,> 100 µM (inactive)
same,GI50,HCC 2998,> 100 µM (inactive)
same,GI50,K562,> 100 µM (inactive)
same,GI50,HCT-15,> 100 µM
same,GI50,RPMI-8226,> 100 µM (inactive)
same,GI50,UACC-257,> 100 µM (inactive)
same,GI50,T47D,75.5 µM (inactive)
same,GI50,M14,> 100 µM (inactive)
same,GI50,ACHN,> 100 µM (inactive)
same,GI50,CCRF-CEM,99.8 µM (inactive)
same,GI50,HT-29,> 100 µM (inactive)
same,GI50,NCI-H522,> 100 µM (inactive)
same,GI50,HOP-62,> 100 µM (inactive)
same,GI50,SN12C,> 100 µM (inactive)
same,GI50,SW-620,> 100 µM (inactive)
same,GI50,MCF7,> 100 µM (inactive)
same,GI50,SF-268,> 100 µM (inactive)
same,GI50,CAKI-1,> 100 µM (inactive)
same,GI50,786-0,> 100 µM (inactive)
same,GI50,Malme-3M,> 100 µM (inactive)
same,GI50,MDA-MB-435,> 100 µM (inactive)
same,GI50,SF-295,> 100 µM (inactive)
same,GI50,A498,> 100 µM (inactive)
same,GI50,IGROV-1,> 100 µM (inactive)
same,GI50,MOLT-4,> 100 µM (inactive)
same,GI50,OVCAR-5,> 100 µM (inactive)
same,GI50,Hs-578T,70 µM (inactive)
same,GI50,KM12,> 100 µM (inactive)
COc1ccccc1OCC(=N/NC(=O)c1ccncc1)/N=C/c1ccncc1,GI50,SK-OV-3,> 100 µM (inactive)
same,GI50,HOP-92,44 µM (inactive)
same,GI50,COLO 205,> 100 µM (inactive)
same,GI50,SK-MEL-2,> 100 µM (inactive)
same,GI50,MDA-MB-231,> 100 µM (inactive)
same,GI50,U-251,> 100 µM (inactive)
same,GI50,TK-10,> 100 µM (inactive)
same,GI50,A549,> 100 µM (inactive)
same,GI50,OVCAR-8,> 100 µM (inactive)
same,GI50,PC-3,> 100 µM (inactive)
same,GI50,HCT-116,> 100 µM (inactive)
same,GI50,BT-549,> 100 µM (inactive)
same,GI50,NCI-H226,> 100 µM (inactive)
same,GI50,MDA-N,> 100 µM (inactive)
same,GI50,SNB-19,> 100 µM (inactive)
same,GI50,NCI-H460,> 100 µM (inactive)
same,GI50,UACC-62,> 100 µM (inactive)
same,GI50,NCI/ADR-RES,> 100 µM (inactive)
same,GI50,OVCAR-4,> 100 µM (inactive)
same,GI50,HL-60,> 100 µM (inactive)
same,GI50,EKVX,> 100 µM (inactive)
same,GI50,SK-MEL-28,> 100 µM (inactive)
same,GI50,LOX IMVI,> 100 µM (inactive)
same,GI50,RXF 393,> 100 µM (inactive)
same,GI50,OVCAR-3,> 100 µM (inactive)
same,GI50,NCI-H23,> 100 µM (inactive)
same,GI50,DU-145,> 100 µM (inactive)
same,GI50,HCC 2998,> 100 µM (inactive)
same,GI50,K562,> 100 µM (inactive)
same,GI50,HCT-15,> 100 µM
same,GI50,RPMI-8226,> 100 µM (inactive)
same,GI50,UACC-257,> 100 µM (inactive)
same,GI50,T47D,> 100 µM (inactive)
same,GI50,SF-539,> 100 µM (inactive)
same,GI50,M14,> 100 µM (inactive)
same,GI50,ACHN,> 100 µM (inactive)
same,GI50,CCRF-CEM,> 100 µM (inactive)
same,GI50,HT-29,> 100 µM (inactive)
same,GI50,NCI-H522,> 100 µM (inactive)
same,GI50,HOP-62,> 100 µM (inactive)
same,GI50,SN12C,> 100 µM (inactive)
same,GI50,SW-620,> 100 µM (inactive)
same,GI50,MCF7,> 100 µM (inactive)
same,GI50,SF-268,> 100 µM (inactive)
same,GI50,CAKI-1,> 100 µM (inactive)
same,GI50,786-0,> 100 µM (inactive)
same,GI50,Malme-3M,> 100 µM (inactive)
same,GI50,MDA-MB-435,> 100 µM (inactive)
same,GI50,SF-295,> 100 µM (inactive)
same,GI50,A498,> 100 µM (inactive)
same,GI50,IGROV-1,> 100 µM (inactive)
same,GI50,MOLT-4,> 100 µM (inactive)
same,GI50,OVCAR-5,> 100 µM (inactive)
same,GI50,Hs-578T,> 100 µM (inactive)
same,GI50,KM12,> 100 µM (inactive)
CC(=O)OC[C@@]1(C)[C@@H]2[C@@H]3[C@@]4(CO[C@]3(C)C(=O)[C@@]3(OC(C)=O)C[C@H](C)[C@H](OC(C)=O)[C@@H]3[C@H]4OC(C)=O)[C@H](OC(=O)c3ccccc3)C[C@@H]21,GI50,SK-OV-3,> 100 µM (inactive)
same,GI50,UO-31,99.8 µM (inactive)
same,GI50,HOP-92,> 100 µM (inactive)
same,GI50,COLO 205,49.8 µM (inactive)
same,GI50,SK-MEL-2,> 100 µM (inactive)
same,GI50,MDA-MB-231,> 100 µM (inactive)
same,GI50,U-251,> 100 µM (inactive)
same,GI50,SK-MEL-5,> 100 µM (inactive)
same,GI50,TK-10,> 100 µM (inactive)
same,GI50,A549,74.1 µM (inactive)
same,GI50,OVCAR-8,> 100 µM (inactive)
same,GI50,PC-3,45.6 µM (inactive)
same,GI50,HCT-116,67.9 µM (inactive)
same,GI50,BT-549,> 100 µM (inactive)
same,GI50,NCI-H226,> 100 µM (inactive)
same,GI50,MDA-N,> 100 µM (inactive)
same,GI50,SNB-19,> 100 µM (inactive)
same,GI50,NCI-H460,59 µM (inactive)
same,GI50,UACC-62,> 100 µM (inactive)
same,GI50,NCI/ADR-RES,> 100 µM (inactive)
same,GI50,OVCAR-4,> 100 µM (inactive)
same,GI50,HL-60,63.8 µM (inactive)
same,GI50,EKVX,63.2 µM (inactive)
same,GI50,SK-MEL-28,> 100 µM (inactive)
same,GI50,LOX IMVI,79.6 µM (inactive)
same,GI50,RXF 393,> 100 µM (inactive)
same,GI50,OVCAR-3,> 100 µM (inactive)
same,GI50,NCI-H23,> 100 µM (inactive)
same,GI50,DU-145,> 100 µM (inactive)
same,GI50,HCC 2998,> 100 µM (inactive)
same,GI50,K562,24 µM (inactive)
same,GI50,HCT-15,> 100 µM
same,GI50,RPMI-8226,19 µM (inactive)
same,GI50,SNB-75,> 100 µM (inactive)
same,GI50,UACC-257,> 100 µM (inactive)
same,GI50,T47D,66.2 µM (inactive)
same,GI50,SF-539,> 100 µM (inactive)
same,GI50,M14,91.4 µM (inactive)
same,GI50,ACHN,> 100 µM (inactive)
same,GI50,CCRF-CEM,32.8 µM (inactive)
same,GI50,HT-29,89.9 µM (inactive)
same,GI50,NCI-H522,> 100 µM (inactive)
same,GI50,HOP-62,> 100 µM (inactive)
same,GI50,SN12C,> 100 µM (inactive)
same,GI50,SW-620,78.5 µM (inactive)
same,GI50,MCF7,81.8 µM (inactive)
same,GI50,SF-268,> 100 µM (inactive)
same,GI50,CAKI-1,> 100 µM (inactive)
same,GI50,786-0,> 100 µM (inactive)
same,GI50,Malme-3M,> 100 µM (inactive)
same,GI50,MDA-MB-435,> 100 µM (inactive)
same,GI50,SF-295,93.3 µM (inactive)
same,GI50,A498,> 100 µM (inactive)
same,GI50,IGROV-1,> 100 µM (inactive)
same,GI50,OVCAR-5,> 100 µM (inactive)
same,GI50,Hs-578T,> 100 µM (inactive)
same,GI50,KM12,> 100 µM (inactive)
